# From paper PMC3226453, “Targeting the Wolbachia Cell Division Protein FtsZ as a New Approach for Antifilarial Therapy” (PLoS Neglected Tropical Diseases, 2011)
# Tests used:
# Ec-FtsZ [1] = target: T1, Ec-FtsZ (Escherichia coli, UniProt P0A9A6); experiment: enzyme-coupled GTPase assay, dose response; type: biochemical
# T1 construct: N-terminal His tag, from strain MG1655
# T1 sequence (P0A9A6 1-383): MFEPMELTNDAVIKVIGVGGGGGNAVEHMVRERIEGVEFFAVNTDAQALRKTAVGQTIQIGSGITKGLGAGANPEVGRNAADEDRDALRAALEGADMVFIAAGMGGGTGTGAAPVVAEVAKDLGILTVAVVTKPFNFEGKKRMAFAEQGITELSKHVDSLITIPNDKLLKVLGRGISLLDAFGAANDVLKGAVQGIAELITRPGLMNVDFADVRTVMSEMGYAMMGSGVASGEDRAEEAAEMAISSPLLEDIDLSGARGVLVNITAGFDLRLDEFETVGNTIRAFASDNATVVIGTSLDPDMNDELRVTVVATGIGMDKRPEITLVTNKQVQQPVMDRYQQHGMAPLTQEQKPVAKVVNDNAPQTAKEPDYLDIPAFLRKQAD
# Ec-FtsZ [2] = target: T1, Ec-FtsZ; experiment: enzyme-coupled GTPase assay, specific activity; type: biochemical
# (UniProt Q5GS34) = target: T2, (UniProt Q5GS34); experiment: enzyme-coupled (PK/LDH, NADH) GTPase assay; type: biochemical, Wolbachia endosymbiont of Brugia malayi
# T2 construct: gene ftsZ; full-length, N-terminal His6 tag
# Ec-FtsZ [3] = target: T1, Ec-FtsZ; experiment: enzyme-coupled (PK/LDH, NADH) GTPase assay; type: biochemical
# T2 sequence (Q5GS34 1-396 limits assumed): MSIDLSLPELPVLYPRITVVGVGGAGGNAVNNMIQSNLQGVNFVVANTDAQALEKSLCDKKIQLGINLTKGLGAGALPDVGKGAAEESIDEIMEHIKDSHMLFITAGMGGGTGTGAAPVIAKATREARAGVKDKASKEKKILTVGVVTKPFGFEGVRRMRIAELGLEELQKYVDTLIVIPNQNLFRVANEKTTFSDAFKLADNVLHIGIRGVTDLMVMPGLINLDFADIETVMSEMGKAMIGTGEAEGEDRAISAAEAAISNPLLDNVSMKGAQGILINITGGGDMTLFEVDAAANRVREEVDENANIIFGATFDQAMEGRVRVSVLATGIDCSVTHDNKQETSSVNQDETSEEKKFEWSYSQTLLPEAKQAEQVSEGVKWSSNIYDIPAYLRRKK
compound,measurement,setting,value
COc1ccc(-c2ccc(C(C(=O)NC3CCCCC3)N(Cc3ccccn3)C(=O)c3ccccc3)cc2)cc1 (centres unmarked) [AV-C6],"enzyme-coupled GTPase assay, dose response",Ec-FtsZ [1],both compounds inhibited Ec-FtsZ activity although each was slightly less potent
Nc1nc2c(ncn2[C@@H]2O[C@H](COP(=O)(O)OP(=O)(O)OP(=O)(O)O)[C@@H](O)[C@H]2O)c(=O)[nH]1 [GTP],"enzyme-coupled GTPase assay, specific activity",Ec-FtsZ [2],0.22 ± 0.015 µmol/min/mg
CCCCNC(=O)C(c1ccc2cc(O)ccc2c1)N(Cc1ccc(Cl)cc1)C(=O)CCC (centres unmarked) [N938],"enzyme-coupled GTPase assay, dose response",Ec-FtsZ [1],both compounds inhibited Ec-FtsZ activity although each was slightly less potent
COc1ccc2cc3[n+](cc2c1OC)CCc1cc2c(cc1-3)OCO2 [berberine],IC50,(UniProt Q5GS34),320 µM
same,IC50,Ec-FtsZ [3],240 µM
